Source: patent publication US10434225B2, “Para-xylene films and therapeutic uses thereof” (NORTHWESTERN UNIVERSITY, priority 2013, dated 2019)

System: Interleukin-6 (IL-6)
Assay: IL-6 gene expression by real-time PCR in macrophages on surfaces
Assay type: cell-based, murine
Conditions: RAW264.7 macrophages, LPS stimulated (+), DEX added to Control or integrated into PPX film
Experimental: In-vitro analysis and drug release was completed through deposition of PPX on varying culture plates. Surface treatment of prepared PPX culture plates either had plasma oxidation (Oxd) or lack thereof resulting in hydrophilic or hydrophobic surfaces (native form). RAW264.7 macrophages and NIH-3T3 fibroblasts were analyzed on varying surfaces to determine in-vitro response. Cells were kept in DMEM media supplemented with 10% FBS and 1% Pen/Strep in humidified atmosphere with 5% CO^2. Cellular analysis was completed through the application of time lapse bright field imaging in addition to multiple cellular assays examining viability (MTT, Roche Diagnostics), proliferation (CyQUANT, Life Technologies) and adhesion (Vybrant, Molecular Probes) onto polystyrene, representing baseline biocompatible control surfaces, and various PPX surfaces. RNA isolation was accomplished utilizing TRIzol reagent (Invitrogen Corporation, Carlsbad, Calif.) per the manufacturer's guidelines. cDNA was synthesized using the iScript Select cDNA Synthesis Kit (Quanta Biosciences, Gaithersburg, Md.). PCR was done using SYBER Green detection reagents (Quanta Biosciences, Gaithersburg, Md.) and appropriate primers for IL-6 and β-Actin (Integrated DNA Technologies, Coralville, Iowa). Samples were amplified using a MyiQ real-time PCR detection system (Bio-Rad).

## C[C@@H]1C[C@H]2[C@@H]3CCC4=CC(=O)C=C[C@]4(C)[C@@]3(F)[C@@H](O)C[C@]2(C)[C@@]1(O)C(=O)CO [DEX, dexamethasone]
  IL-6 expression, LPS stimulation (+) with DEX: 217.4±54.0
